In patent US12599584B2, “Indoline derivatives, compositions comprising them and uses thereof” (Yissum Research Development Company of The Hebrew …, priority 2016, dated 2026):

System: Caspase 3
Test: Caspase 3 activity in RAW macrophage 264.7 cells exposed to H2O2
Assay type: cell-based, mouse
Conditions: 1×10^−13M
Procedure: Oxidative stress can cause apoptosis, a form of cell suicide mediated by a cascade of proteolytic enzymes called caspases (cysteinyl aspartate-specific proteases). Caspase 3 is one of a number of effector caspases. Its activity was measured by means of a luminescent assay (Caspase-Glo 3/7 Assay Promega Ltd). […] The medium was aspirated 90 min later, 100 μL of DMEM was added to each well and the plates kept in an incubator overnight. Caspase-GloR Reagent (100 μL) was added to each well and the contents gently mixed using a plate shaker at 300-500 rpm for 30 sec. The plates were left at room temperature for 30 min and then luminescence of each sample was measured in a plate-reading luminometer (Cytation 3).

NCCCN1CCc2ccccc21 [AN1264, di-p-Toluenesulfonate]
Reduction in caspase 3 activity compared with the other compounds: less reduction in caspase 3 activity than the other compounds

COC(=O)CCN1CCc2ccc(OCc3ccccc3)cc21.Cc1ccc(S(=O)(=O)O)cc1 [AN1279, Methyl 3-(6-(Benzyloxy)indolin-1-yl)propanoate p-Toluenesulfonate]
Reduction in caspase 3 activity compared with the other compounds: less reduction in caspase 3 activity than the other compounds
